Patent US20220119355A1, “SATURATED-RING-FUSED DIHYDROPYRIMIDINONE OR DIHYDROTRIAZINONE COMPOUNDS AND PHARMACEUTICAL USE THEREOF” (Japan Tobacco Inc., priority 2018, published 2022)

Experiments:
[1] = biological target: T1, human RORγ (Homo sapiens, UniProt P51449); assay: In-vitro reporter gene assay for inhibitory activity against RORγ transcription, Test Method B (pFA/hRORγ LBD / pG5-Luc in CHO cells); type: cell-based; details: luciferase reporter, CHO cells, 2 days
T1 construct: from Ser253 to Lys518 for human RORγ; expressed in transfected cells; host or cells: CHO cells (transient co-transfection with pG5-Luc)
T1 sequence (P51449 253-518): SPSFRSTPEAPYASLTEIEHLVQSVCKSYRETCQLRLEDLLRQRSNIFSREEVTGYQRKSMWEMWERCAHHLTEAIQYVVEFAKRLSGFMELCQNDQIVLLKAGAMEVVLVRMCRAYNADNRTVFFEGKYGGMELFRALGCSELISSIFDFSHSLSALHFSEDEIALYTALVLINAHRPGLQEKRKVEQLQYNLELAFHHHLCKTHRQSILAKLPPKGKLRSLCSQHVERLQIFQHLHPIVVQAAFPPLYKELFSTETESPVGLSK
Protocol: (§1) In-Vitro Assay for Inhibitory Activity Against RORγ Transcription
(§2) Inhibitory activity against RORγ transcription was assessed for test compounds by either of the following Test Method A or B of reporter gene assay.
(§3) cDNAs encoding human and mouse RORγ ligand binding domains (LBD) were obtained based on the sequences of human RORγ (Genbank registered number NM_005060.3) and mouse RORγ (Genbank registered number NM_011281.2) (LBD sequences: from Ser253 to Lys518 for human RORγ; from Ile251 to Lys516 for mouse RORγ).
(§4) LBD cDNAs of human and mouse RORγ were inserted into pFA-CMV vector (Agilent Technologies, Inc.), which expresses GAL4-DNA binding domain fusion protein. The resulting plasmids are hereinafter referred to as pFA/hRORγ plasmid and pFA/mRORγ plasmid, respectively.
(§5) pFA/hRORγ plasmid or pFA/mRORγ plasmid was transiently co-transfected into Chinese hamster ovary cells (CHO cells) with pG5-Luc (Promega), reporter plasmid expressing firefly luciferase in a GAL4-dependent manner.
(§6) TransIT (Registered trademark) CHO Transfection Kit (Mirus) was used to co-transfect CHO cells with the plasmids. One day prior to the assay, CHO cells were suspended in HAM F-12 Nutrient medium containing 10% (v/v) fetal bovine serum and seeded at 5.5×10^6 cells per 225 cm^2 cell culture flask each. 72 μL of TransIT (Registered trademark) CHO reagent was added into a 2 mL tube containing 1.55 mL of Opti-MEM, and then mixed and incubated at room temperature for 10 minutes. 50.4 μL of a plasmid solution containing 300 ng of pFA/hRORγ plasmid, 12000 ng of pG5-Luc plasmid, and 11700 ng of pcDNA3.1 plasmid were added into the tube and mixed gently. In the case of mouse assay, a plasmid solution containing 300 ng of pFA/mRORγ plasmid, 12000 ng of pG5-Luc plasmid, and 11700 ng of pcDNA3.1 plasmid was added, instead. The mixture was incubated at room temperature for 10 minutes. 12 μL each of CHO Mojo Reagent were then added into each tube and mixed gently. The mixture was incubated at room temperature for 10 minutes. The resulting transfection reagent was applied to the cell culture. After incubation at 37° C., 5% CO2 for 4 hours, the plasmid-transfected CHO cells were harvested by trypsin treatment. The collected cells were resuspended in culture medium and plated into a 384-well-white plate at 8,000 cells/35 μL/well. The plate was let stand at room temperature for 1 hour and then further incubated at 37° C., 5% CO2 for 3 hours. A test compound was dissolved in dimethyl sulfoxide (DMSO) to obtain a concentration of 10 mM. Each solution was serially diluted with DMSO and further diluted with culture medium just before use. The test compound solutions were added to the cells in the plate at 6 different concentrations. The final concentration of DMSO was 0.2% (v/v). After the addition of test compound, the cells were incubated at 37° C., 5% CO2 for 2 days.
(§7) RORγ transcriptional activity was detected as the intracellular luciferase activity using SteadyLite HTS Reporter Gene Assay System (Perkin Elmer). SteadyLite Reagent was diluted 2.5-fold with Extension buffer (10 mM Tricine, 0.2% (w/v) bovine serum albumin, 0.02% (v/v) Tween-20) to obtain a luciferase substrate solution. Two days after the addition of test compound, 40 μL each of the luciferase substrate solution was added into the 384-well-plate. After the incubation at room temperature for 10 minutes, luminescence of each well was measured with a microplate reader. The luciferase activity derived from the luminescence count in a vehicle-control well treated with 0.2% DMSO alone was defined as 100%, and the luciferase activity after treatment of the test compound was calculated as a percentage, %-of-control, based on the value of the vehicle-control. An EC50 value of the test compound was calculated by curve fitting. The luminescence counts at the concentration of test compound where cytotoxicity was observed were excluded from data analysis. […]

[2] = biological target: T2, mouse RORγ (Mus musculus, UniProt P51450); assay: In-vitro reporter gene assay for inhibitory activity against RORγ transcription, Test Method B (pFA/mRORγ LBD / pG5-Luc in CHO cells); type: cell-based; details: luciferase reporter, CHO cells, 2 days
T2 construct: from Ile251 to Lys516 for mouse RORγ; expressed in transfected cells; host or cells: CHO cells (transient co-transfection with pG5-Luc)
T2 sequence (P51450 251-516): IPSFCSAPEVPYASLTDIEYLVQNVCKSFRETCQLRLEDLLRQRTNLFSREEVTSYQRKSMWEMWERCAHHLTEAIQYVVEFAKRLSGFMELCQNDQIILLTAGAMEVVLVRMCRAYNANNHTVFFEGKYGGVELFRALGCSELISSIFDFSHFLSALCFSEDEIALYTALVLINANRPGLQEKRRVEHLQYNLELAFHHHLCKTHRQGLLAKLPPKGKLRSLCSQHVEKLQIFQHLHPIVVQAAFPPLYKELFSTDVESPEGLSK
Protocol: as §1, §2, §3, §4, §5, §6, §7

[3] = Non Patent Literature 33; cited from earlier work

Q: Which EC50 [1] does the source give for C[C@H]1CCC2(c3ccc(C4C(C(C)(C)C)C4(F)F)c(Cl)c3)NC(=O)N(C34CC(C(=O)O)(C3)C4)C=C2[C@@H]1C (single isomer, unassigned) [Example 114] here?
A: 0.027 µM

Q: And the EC50 [2]?
A: 0.05 µM

Q: With C[C@H]1CCC2(c3ccc(C4C(C(C)(C)C)C4(F)F)c(Cl)c3)NC(=O)N(C34CCC(C(=O)O)(C3)C4)C=C2[C@@H]1C (single isomer, unassigned) [Example 115] as the compound, how does the EC50 [1] read?
A: 0.031 µM

Q: And the EC50 [2]?
A: 0.049 µM

Q: For C[C@H]1CCC2(c3ccc(C4C(C(C)(C)C)C4(F)F)c(Cl)c3)NC(=O)N(C34CCC(C(=O)O)(C3)C4)C=C2[C@@H]1C (single isomer, unassigned) [Example 116], which EC50 [1] is on record?
A: 0.044 µM

Q: What about the EC50 [2] of the same compound?
A: 0.101 µM

Q: Which EC50 [1] does the source give for CC1C2=CN(C34CC(C(=O)O)(C3)C4)C(=O)N[C@@]2(c2ccc(CCC(C)(C)C)c(Cl)c2)CCC1(C)C (single isomer, unassigned) [Example 117] here?
A: 4.68 µM

Q: And the EC50 [2]?
A: 5.3 µM

Q: What does the source list for CC1C2=CN(C34CC(C(=O)O)(C3)C4)C(=O)N[C@]2(c2ccc(CCC(C)(C)C)c(Cl)c2)CCC1(C)C (single isomer, unassigned) [Example 118]?
A: EC50 [1]: 0.033 µM; EC50 [2]: 0.082 µM

Q: Which EC50 [1] does the source give for CC1C2=CN(C34CCC(C(=O)O)(C3)C4)C(=O)N[C@@]2(c2ccc(CCC(C)(C)C)c(Cl)c2)COC1(C)C (single isomer, unassigned) [Example 119] here?
A: > 10 µM

Q: And the EC50 [2]?
A: > 10 µM

Q: Which EC50 [1] does the source give for CC1C2=CN(C34CCC(C(=O)O)(C3)C4)C(=O)N[C@]2(c2ccc(CCC(C)(C)C)c(Cl)c2)COC1(C)C (single isomer, unassigned) [Example 120] here?
A: 0.013 µM

Q: What about the EC50 [2] of the same compound?
A: 0.02 µM

Q: With CC1C2=CN(C34CCC(C(=O)O)(C3)C4)C(=O)N[C@]2(c2ccc(CCC(C)(C)C)c(Cl)c2)COC1(C)C (single isomer, unassigned) [Example 121] as the compound, how does the EC50 [1] read?
A: 0.035 µM

Q: And the EC50 [2]?
A: 0.04 µM

Q: Which “bone loss in experimental periodontitis model” value [3] does the source give for CCS(=O)(=O)c1ccc(CC(=O)Nc2cc(Cl)c(-c3ccccc3OC(F)(F)F)c(Cl)c2)cc1 [GSK805] here?
A: diminished bone loss
